How the values were obtained:
[1] = test system: Arg; experiment: Arg mRNA (RT-PCR) and protein (Western blot) levels; format: cell-based, human; conditions: 40 μM α-TEA
Protocol: Arg (ABL2) expression data obtained from gene array analysis was further confirmed by RT-PCR and Western blot analyses. […] Unlike MDA-MB-435 cells, the MCF-7 cell line is an estrogen-receptor positive/estrogen responsive human breast cancer line (Klotz et al., 1995). However, both cell lines were induced to undergo apoptosis by α-TEA as assessed by PARP cleavage (FIG. 1B).
Whole-cell protein extracts were prepared as described previously (Yu et al., 1999), and 50 μg of protein was loaded per lane, separated using SDS-PAGE on a 10-15% gel under reducing conditions, and electroblotted onto a nitrocellulose membrane ([…] Optitran BA-S-supported nitrocellulose; Schleicher and Schuell, Keene, N.H.). Equal loading was verified using GAPDH antibody. Primary rabbit antibodies with specificity for PARP and primary goat antibody with specificity for Arg were purchased from Santa Cruz Biotechnology (Santa Cruz, Calif.). Horseradish peroxidase conjugated goat anti-rabbit or horseradish goat anti-mouse secondary antibody was purchased from Jackson Immunoresearch Laboratory (West Grove, Pa.). Horseradish peroxidase-conjugated donkey anti-goat serum was purchased from Santa Cruz Biotechnology. Immune complexes were visualized using enhanced chemiluminescence detection (Pierce Chemical Co., Rockford, Ill.). Fold differences in level of chemiluminescence were determined by densitometric analyses.
Total RNA was isolated from cells using RNeasy Protect Mini kit (Qiagen, Valencia, Calif.) according to manufacturer's instruction. Reverse transcription was performed as described above except using 15 μg of total RNA as template. […]
The double stranded small interfering RNA oligonucleotides specific for Arg and negative control siRNA (with no known homology to mammalian genes) were purchased from Ambion (siRNA ID #1478, Austin, Tex.). […] The cells were collected, lysed and the lysates were analyzed by immunoblotting (Western blot).

[2] = test system: TSP-1; experiment: TSP-1 mRNA and protein levels in 66c1-4-GFP mouse mammary tumor cells; format: cell-based; conditions: 66c1-4-GFP cells, 40 μM α-TEA
[3] = test system: Akt; experiment: Western blot of phosphorylated Akt (Ser 473) and total Akt in prostate cancer cells; format: cell-based, human
Description: (§1) Previous studies have shown that α-TEA is an effective inducer of apoptosis in human prostate cancer cells (Anderson et al., 2004). Dose- and time-dependent pro-apoptotic effects of α-TEA in prostate cancer cells are mediated by Fas/FADD/caspase-8/tBid and Fas/Daxx/Ask1/JNK1/2/Bax, leading to activation of caspases-9 and -3. Thus, the Akt inhibiting activity of α-TEA was investigated in prostate cancer cells. Since phosphorylation of Akt at Ser 473 is required for its full activation (Cheng et al., 2005), we examined the phosphorylation status of Akt using an antibody that specifically recognizes Akt phosphorylated at Ser 473 in all three Akt isoforms (Upstate Cell Signaling Solutions (Charlottesville, Va.)). α-TEA decreased the levels of the phosphorylated forms of Akt. […] As verification that the decreases in phosphorylation status of Akt correlated with decreased kinase activity, the phosphorylation status of GSK3β, a downstream Akt target, was evaluated following α-TEA treatments. […] GAPDH levels were assayed with each immunoblot assay as a protein loading control.
Since Akt has three isoforms; namely, Akt1, Akt2, and Akt3, it was of interest to determine if α-TEA treatment was reducing the phosphorylated status of all three isoforms. Following α-TEA treatment the three Akt isoforms were immunoprecipitated with isoform specific antibodies, followed by western immunoblotting analyses using antibody specific for phospho-Akt. The protein levels of the isoforms were also determined. […] Treatment diminished the phosphorylation levels in all three Akt isoforms in both LNCaP and PC-3-GFP cells.
1×10^7 LNCaP or PC-3 3-GFP cells were treated with α-TEA and lysed in RIPA lysis buffer in the presence of protease inhibitors. […] Beads were washed 4 times with PBS and the proteins were released from the beads by boiling in Laemmli buffer for 5 min. Immunoprecipitated proteins were identified by SDS-PAGE followed by western immunoblot analyses.
Since Akt is activated, at least in part, by PI3K, we were interested to see if blockage of PI3K activity using the PI3K inhibitor LY294002 (Calbiochem-Novabiochem Corp. (San Diego, Calif.)) (Vlahos et al., 1994) would augment the apoptotic response induced by α-TEA.

[4] = test system: GSK3β; experiment: Western blot of phospho-GSK3β (Ser 9); format: cell-based, human; conditions: LNCaP and PC-3-GFP cells, 40 μM α-TEA
Description: as §1
Akt antibodies for the foregoing studies (Akt, Akt1, Akt2, Akt and phospho-Akt) as well as GSK3β and phospho-GSK3β antibodies were purchased from Cell Signaling Technology (Beverly, Mass.).

[5] = test system: survivin; experiment: Survivin protein level by immunoblot; format: cell-based, human; conditions: LNCaP and PC-3-GFP cells, 40 μM α-TEA, time-dependent
Description: Antibodies to human Flip and survivin used in these experiments were purchased from Santa Cruz Biotechnology (Santa Cruz, Calif.).

[6] = test system: human MDA-MB-435 breast cancer cells; conditions: preclinical xenograft model transplanted with human MDA-MB-435 breast cancer cells (Zhang et al., 2004); cited from earlier work

## Cc1c(C)c2c(c(C)c1OCC(=O)O)CC[C@@](C)(CCC[C@H](C)CCC[C@H](C)CCCC(C)C)O2 [α-TEA]
[1]; MCF-7 cells
  up-regulation of Arg mRNA and protein levels: not in MCF-7 cells
[1]; MDA-MB-435 cells, 24 h, RT-PCR densitometry
  peak Arg mRNA levels, fold of the vehicle (VEH) control: 1.5 fold
[1]; MDA-MB-435 cells, 24 h, Western densitometry
  peak Arg protein levels, fold of the VEH control: 2.9 fold
[2]; 6 h
  peak TSP-1 mRNA levels, fold of VEH control: 2.4 fold
[2]; 24 h
  TSP-1 protein levels, fold of VEH control: 7.8 fold
[3]; LNCaP and PC-3-GFP cells, 40 μM α-TEA, 24 h
  phosphorylation levels of Akt1, Akt2, Akt3 isoforms (immunoprecipitation): markedly reduced
[3]; LNCaP and PC-3-GFP cells, any time point
  effect on level of Akt protein expression: no major effect
[3]; LNCaP cells, 10 μM α-TEA and/or 10 μM LY294002
  inhibition of levels of endogenously phosphorylated Akt: 40%
[3]; LNCaP cells, 40 μM α-TEA, 24 h
  reduction of phosphorylated forms of Akt: 90%
[3]; PC-3-GFP cells, 20 μM α-TEA and/or 10 μM LY294002
  inhibition of levels of endogenously phosphorylated Akt: 70%
[3]; PC-3-GFP cells, 40 μM α-TEA, 24 h
  reduction of phosphorylated forms of Akt: 70%
[4]
  phosphorylation status of pGSK3β (at Ser 9): Decreases
[5]
  protein levels of survivin: downregulated
[6]
  blood vessel density: significantly reduce blood vessel density
